{"source": "patent US20140079634A1", "about": "“LABELED PE2I FORMULATION AND METHOD” (priority 2012, published 2014)", "assay_type_in_all_cases": "in vivo", "key": {"dopamine transporter [1]": {"target": "dopamine transporter (Rattus norvegicus, UniProt P23977)", "sequence (P23977 whole entry)": "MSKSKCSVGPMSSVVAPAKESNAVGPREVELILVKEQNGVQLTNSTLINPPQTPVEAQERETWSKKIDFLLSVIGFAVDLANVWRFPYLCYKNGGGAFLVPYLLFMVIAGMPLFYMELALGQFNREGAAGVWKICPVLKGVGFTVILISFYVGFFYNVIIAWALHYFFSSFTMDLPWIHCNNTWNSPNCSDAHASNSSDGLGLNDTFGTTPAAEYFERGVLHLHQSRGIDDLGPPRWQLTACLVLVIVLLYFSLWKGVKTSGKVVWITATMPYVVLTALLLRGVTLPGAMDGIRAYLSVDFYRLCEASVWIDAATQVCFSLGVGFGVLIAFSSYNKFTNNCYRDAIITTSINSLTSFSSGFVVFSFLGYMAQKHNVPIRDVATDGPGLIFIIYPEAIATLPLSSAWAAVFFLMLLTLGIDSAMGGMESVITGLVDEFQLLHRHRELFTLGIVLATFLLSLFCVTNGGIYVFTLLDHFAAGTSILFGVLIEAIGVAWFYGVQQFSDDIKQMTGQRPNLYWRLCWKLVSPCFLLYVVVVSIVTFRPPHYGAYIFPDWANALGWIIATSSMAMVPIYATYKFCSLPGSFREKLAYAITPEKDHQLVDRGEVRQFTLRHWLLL", "experiment": "SPECT scan, transporter occupancy and binding parameters (Parkinson's Diagnosis)", "protocol": "A SPECT scan is performed. Strong evidence of different nonspecific binding in the striatal region, compared with the reference region is found, leading to bias in the estimate of dopaminergic denervation (range, 36%-94% severity) was found. […] The 6-hydroxydopamine lesion affected B(max) (control, 402±94 pmol/mL; lesioned, 117±120 pmol/mL; P=0.003) but not K app d (control, 331±63 pmol/mL; lesioned, 362±119 pmol/mL; P=0.63)."}, "dopamine transporter [2]": {"target": "T1, dopamine transporter (Homo sapiens, UniProt Q01959)", "T1 construct": "from tissue; host or cells: striatum in vivo (SPECT imaging of subjects)", "T1 sequence (Q01959 whole entry)": "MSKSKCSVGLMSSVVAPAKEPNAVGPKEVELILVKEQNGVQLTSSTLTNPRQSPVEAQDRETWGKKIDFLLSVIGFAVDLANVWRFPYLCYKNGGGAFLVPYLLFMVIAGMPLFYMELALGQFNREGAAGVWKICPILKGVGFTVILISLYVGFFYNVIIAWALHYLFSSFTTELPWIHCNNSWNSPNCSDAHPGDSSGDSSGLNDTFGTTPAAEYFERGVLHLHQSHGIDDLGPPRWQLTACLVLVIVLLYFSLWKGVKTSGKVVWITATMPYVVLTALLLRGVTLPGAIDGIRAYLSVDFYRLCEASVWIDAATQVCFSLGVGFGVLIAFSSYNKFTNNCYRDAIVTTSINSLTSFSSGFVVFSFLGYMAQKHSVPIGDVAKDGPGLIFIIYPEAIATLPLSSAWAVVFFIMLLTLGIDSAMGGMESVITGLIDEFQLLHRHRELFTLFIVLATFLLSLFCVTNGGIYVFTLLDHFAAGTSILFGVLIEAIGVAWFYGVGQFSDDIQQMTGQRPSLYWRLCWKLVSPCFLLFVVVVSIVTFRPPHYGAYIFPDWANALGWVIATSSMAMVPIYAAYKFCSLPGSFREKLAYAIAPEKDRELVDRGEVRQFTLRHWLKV", "experiment": "SPECT imaging of the dopamine transporter, ADHD subjects", "settings": "six ADHD individuals, greater than 1 mCi intravenous", "protocol": "(§1) SPECT imaging of the dopamine transporter with 1231-PE2I is conducted on six subjects previously diagnosed with ADHD, and on control individuals without a diagnosis of ADHD. For each individual tested, greater than 1 mCi of 1231-PE2I is administered by intravenous injection at the onset of imaging. Images of the striatum are collected and analyzed by a radiologist to determine striatal binding potentials. In general, the methodology used for the SPECT imaging is the same as the methods described in Fischman et al., 1998, Synapse 29:125-41, which is incorporated herein by reference."}, "dopamine transporter [3]": {"target": "T1, dopamine transporter", "experiment": "SPECT imaging of the dopamine transporter, Lewy Body Dementia subjects", "settings": "six Lewy Body Dementia individuals, greater than 1 mCi intravenous", "protocol": "as §1, with “^123I-PE2I” for “1231-PE2I”, “Lewy Body Dementia,” for “ADHD,”, “Lewy Body Dementia.” for “ADHD.”, “29:125 41,” for “29:125-41,”"}}}
{"smiles": "COC(=O)[C@@H]1C2CC[C@H](C[C@@H]1c1ccc(C)cc1)N2C/C=C/I", "note": "[[^123I]-PE2I, [^123I] N-(3-iodoprop-2E-enyl)-2β-carbomethoxy-3β-(4-methylphenyl)-nortropane]", "values": [{"measurement": "B(max)", "setting": "dopamine transporter [1]; 6-hydroxydopamine lesioned", "result": "117 ± 120", "unit": "pmol/mL"}, {"measurement": "B(max)", "setting": "dopamine transporter [1]; control", "result": "402 ± 94", "unit": "pmol/mL"}, {"measurement": "striatal binding potential versus expected levels for aged matched normal individuals", "setting": "dopamine transporter [2]", "result": "reduced binding potential"}, {"measurement": "striatal binding potential versus expected levels for aged matched normal individuals", "setting": "dopamine transporter [3]", "result": "reduced binding potential"}]}
